In ChEMBL document CHEMBL3507680, “University of Dundee, Gates Library screen for HepG2 cell viability” one finds cytotoxicity data, which are given here for 97 molecules.

The nature of the series: Human HepG2 cell viability assay in 384 well format. Set-up: dose 125 nL, time 70.5 hour; concentration not given beside the values. Type of series: toxicity, cell-based. Particulars: HepG2 cells, read-out: Inhibition.

Consider `Cc1ccc(C(=O)NCC2(O)CCOCC2)cc1Br`, for which the cytotoxicity at 70.5 h is -7.13%.
In the case of `CN(C)c1ccc(C(=O)NCC2(O)CCOCC2)cc1`, the cytotoxicity at 70.5 h was -8.78%.
On to `Cc1nnc(NCC2(c3ccc(Cl)cc3Cl)CCOCC2)c(C#N)c1C`, for which the cytotoxicity at 70.5 h was found to be 13.2%.
The figure for `Cc1nnc(NCC2(c3ccccc3)CC2)c(C#N)c1C` is -0.882%; for `Cc1ccccc1C1(CNc2nnc(C)c(C)c2C#N)CCOCC1` it is -6.42%.
The value for `Cn1cc(Br)c(=O)c(NS(=O)(=O)c2ccc(F)cc2)c1` was 16.4%; that for `Clc1ccc(OCCN2CCN(CCn3cncn3)CC2)cc1` was 13.2%; that for `CCc1nc(CC(=O)Nc2cnn(CC3CCCO3)c2)cs1` (configuration not stated) was -7.79%.
Consider `c1ccc2oc(NC3CCCN(Cc4noc(C5CC5)n4)C3)nc2c1` (configuration not stated), for which the cytotoxicity at 70.5 h was -10.4%.
Take `O=C(CCc1cccc(F)c1F)N1CCN(Cc2ccco2)CC1`: the cytotoxicity at 70.5 h was -8.06%.
Take `Cc1nn(C)c(C)c1NC(=O)CN1CCc2c(nc(C3CC3)n2C)C1`: the cytotoxicity at 70.5 h was 12.4%.
In the case of `CC(=O)NCCc1ccc(S(=O)(=O)N(CC(C)C)C(C)C)s1`, the cytotoxicity at 70.5 h worked out at 33%.
Regarding `Cc1cnc(CNc2c(F)cccc2-n2cccn2)o1`, the cytotoxicity at 70.5 h is 7.74%.
On to `CCOc1ccc(CN(C)C(=O)NC(C)c2nncn2C)cc1` (configuration not stated), for which the cytotoxicity at 70.5 h was 8.83%.
For `CN(C(=O)Cn1nc(-c2ccc(F)cc2)oc1=O)C1CCS(=O)(=O)C1` (configuration not stated), the cytotoxicity at 70.5 h was determined as 12.8%.
The value for `COC(=O)c1sccc1NC(=O)C1CCCN1C(=O)c1ccco1` (configuration not stated) was 16.3%.
Regarding `Cc1cc(NC(=O)NCCc2ccsc2)n(C)n1`, the cytotoxicity at 70.5 h was -3.08%.
`Cc1cc(CN(C)C(=O)NC(C)c2nncn2C)no1` (configuration not stated): the cytotoxicity at 70.5 h was -5.64%.
`CC(=O)N1CCC(C(=O)NCCN2CCC(C)CC2)CC1`: the cytotoxicity at 70.5 h is -2.37%.
With `CC(=O)N1CCC(C(=O)NCCN2CCCCC2)CC1`, the cytotoxicity at 70.5 h was -0.67%.
With `CS(=O)(=O)NCCNC(=O)C1(c2cccc(Cl)c2)CC1`, the cytotoxicity at 70.5 h was -4.01%.
The figure for `NC(=O)CN1CCCN(C(=O)c2ccn(-c3cccc(F)c3)n2)CC1` is -7.11%; for `Cc1cc(C)n(CC(=O)N2CCC(c3nc(C)no3)CC2)n1` it is 2.07%; for `CC(C)CNC(=O)Nc1ccc(CN2CCOC2=O)cc1` it is -13.4%.
With `CC(CNC(=O)Nc1ccc(N(C)C)nc1)Cn1cccn1` (configuration not stated), the cytotoxicity at 70.5 h is -7.16%.
In the case of `COCCN(Cc1ccc(F)cc1Cl)C(=O)c1cccc[n+]1[O-]`, the cytotoxicity at 70.5 h was -0.551%.
As for `O=C(CCc1ccccc1)Nc1ncccc1OC(F)F`, the cytotoxicity at 70.5 h is -0.101%.
As to `Cc1ncsc1C(=O)N1CCCC(c2noc(C(C)C)n2)C1` (configuration not stated), the cytotoxicity at 70.5 h came to 0.861%.
Turning to `Cn1cnc(S(=O)(=O)N2CCN(Cc3ccco3)CC2)c1Cl`, the cytotoxicity at 70.5 h was 2.09%.
Consider `Cc1ccc(CC(=O)N2CCOC(c3nc(C(C)(C)C)n[nH]3)C2)cn1` (configuration not stated), for which the cytotoxicity at 70.5 h is -4.13%.
As for `CS(=O)(=O)CCNC(=O)C1(c2cccc(Cl)c2)CCCCC1`, the cytotoxicity at 70.5 h stood at 17.7%.
For `COc1ccccc1OCC(=O)Nc1ncccc1Cl`, the cytotoxicity at 70.5 h is -0.838%.
As to `CCC(C)N(C)S(=O)(=O)c1ccc(CCNC(C)=O)s1` (configuration not stated), the cytotoxicity at 70.5 h is -7%.
For `CCc1nnc2n1CCN(Cc1csc(-c3ccsc3)n1)C2`, the cytotoxicity at 70.5 h is -8.3%.
The value for `CN(C)CCN(Cc1cccc(C(F)(F)F)c1)C(=O)c1cc[nH]n1` was -3.41%.
For `COCCN(Cc1ccc(F)cc1Cl)C(=O)c1ccncc1`, the cytotoxicity at 70.5 h was -6.63%.
In the case of `Cn1cc(-c2csc(CN3CCOCC3)n2)cn1`, the cytotoxicity at 70.5 h is -1.08%.
On to `O=C(NCCCn1cccn1)C1(c2ccc(Br)cc2)CC1`, for which the cytotoxicity at 70.5 h is -2.34%.
On to `O=C1NCCCCC1Sc1nnc(-c2cccnc2)n1C1CC1` (configuration not stated), for which the cytotoxicity at 70.5 h was -5.84%.
Take `CC(NC(=O)C1=NN(C)C(=O)CC1)c1ccc(Cl)cc1Cl` (configuration not stated): the cytotoxicity at 70.5 h is -3.67%.
Turning to `Cc1nc(C(C)(C)NC(=O)Nc2ccccc2)no1`, the cytotoxicity at 70.5 h was 1.88%.
On to `CCOCCN1CCN(Cc2nc(C3CC3)no2)CC1CC` (configuration not stated), for which the cytotoxicity at 70.5 h worked out at 18.8%.
The figure for `CC(C)(C)C(=O)NCCC(=O)NS(=O)(=O)c1ccc2c(c1)OCCO2` is 0.749%.
The value for `COCC(NC(=O)c1cnn(C)c1)c1cccc(C(F)(F)F)c1` (configuration not stated) was 2.36%; that for `Cn1nc2c(cc1=O)CN(CCc1nc3ccccc3c(=O)[nH]1)CC2` was 1.45%.
In the case of `O=C(Nc1cccnc1)N1CCC(n2ccc(C(F)(F)F)n2)CC1`, the cytotoxicity at 70.5 h is -3.71%.
For `Cc1cccc(C(=O)N2CCN(S(C)(=O)=O)[C@@H](C)C2)c1C`, the cytotoxicity at 70.5 h is -0.781%.
For the molecule `CCC1CN(Cc2ccccc2)CCN1Cc1nnc(C2CCC2)o1` (configuration not stated), the cytotoxicity at 70.5 h is -0.161%.
Regarding `CSC(C)C(=O)NCCCc1cc(N)n(-c2ccccc2)n1` (configuration not stated), the cytotoxicity at 70.5 h is 1.73%.
On to `Cc1n[nH]c(C2CN(C(=O)CCc3ccsc3)CCO2)n1` (configuration not stated), for which the cytotoxicity at 70.5 h was -5.2%.
`CCc1ccccc1C(=O)N1CCN(S(C)(=O)=O)[C@@H](C)C1`: the cytotoxicity at 70.5 h is -9.19%.
The figure for `CC(C)OCCOCc1cccc(NC(=O)NCc2ccncc2)c1` is 2.35%.
The value for `COc1cc(NC(=O)c2ccccc2F)c(C(=O)N(C)C)cc1OC` was -10.5%.
`NC(=O)c1ccc(N2CCCCC2)c(NC(=O)c2cc(Br)ccc2F)c1`: the cytotoxicity at 70.5 h is -5.55%.
Turning to `Cc1cc(CN(C)C(=O)C2CCCN(C(=O)c3cccs3)C2)no1` (configuration not stated), the cytotoxicity at 70.5 h is -10.3%.
With `N#Cc1ccc(OCCNc2cccc(C(=O)N3CCOCC3)c2)cc1`, the cytotoxicity at 70.5 h is -13.9%.
Turning to `Cc1cc(CNC(=O)NC(C)c2ccncc2)no1` (configuration not stated), the cytotoxicity at 70.5 h was -9.9%.
As to `CCc1noc(C(C)N2CCC(NC(=O)c3ccc(C)s3)CC2)n1` (configuration not stated), the cytotoxicity at 70.5 h was -7.01%.
As to `CC(C)(C)c1ccc(C2(C(=O)NCCCS(C)(=O)=O)CC2)cc1`, the cytotoxicity at 70.5 h is -1.31%.
Regarding `O=C(C1CCOC1)N1CCC2(CC1)CN(Cc1nccs1)CCO2` (configuration not stated), the cytotoxicity at 70.5 h was -2.99%.
The figure for `Cc1noc(C)c1CN1CC[C@H]2C[C@H](c3nccs3)O[C@@H]2C1` is -9.22%.
As for `O=C(C1CCOC1)N1CCC2(CCN(Cc3nccs3)CC2)CC1` (configuration not stated), the cytotoxicity at 70.5 h was -15.1%.
Consider `COc1cc(N2CC[C@@H](O)[C@@H]2Cc2ccccc2)ncn1`, for which the cytotoxicity at 70.5 h is -5.14%.
For `O=C(c1ccoc1)N1CC[C@@H]2O[C@@H](COCc3ccccn3)CC[C@@H]21`, the cytotoxicity at 70.5 h is -3.1%.
With `CN1C(=O)CC(c2cnn(C)c2)C12CCN(C(=O)c1ccnnc1)CC2` (configuration not stated), the cytotoxicity at 70.5 h was -9.97%.
`CN1CCN(Cc2ccc(F)cc2)Cc2cccnc21`: the cytotoxicity at 70.5 h is -7.2%.
The figure for `O=C(c1ccoc1)N1CC[C@@H]2O[C@@H](COCc3ccncc3)CC[C@@H]21` is 10.2%; for `c1cnc(N2CCCC3(CCN(Cc4ccsc4)C3)C2)nc1` (configuration not stated) it is 11.1%; for `CC(C)Nc1ncnc2c1CCN(C(=O)CN(C)C)CC2` it is 36.6%.
With `Cc1nc(COC[C@H]2CCC[C@]23CN(CC2CC2)CCO3)cs1`, the cytotoxicity at 70.5 h was 18.4%.
Regarding `CN(C)C(=O)COCC1CN(Cc2ccsc2)Cc2nccn2C1` (configuration not stated), the cytotoxicity at 70.5 h is -7.22%.
With `CCOC[C@]12COC[C@H]1CN(Cc1cccc(OC)c1)C2`, the cytotoxicity at 70.5 h was -5.95%.
The value for `CCn1ncc2c1C(COCC1CC1)CN(C(=O)c1ccncn1)C2` (configuration not stated) was -10.2%; that for `Cc1noc([C@@H]2CCO[C@@H]3CCN(Cc4ccc(C)s4)C[C@@H]32)n1` was -10.1%; that for `Cn1ncc2c1C(COCC1CC1)CN(C(=O)c1cscn1)C2` (configuration not stated) was -7.06%.
As for `COCC(=O)N1CCC2(CC1)COCCN2Cc1ccc(F)cc1`, the cytotoxicity at 70.5 h was -11.6%.
For `O=C(N1CCOCC1)N1C[C@H]2CN(Cc3nccs3)C[C@H]2C1`, the cytotoxicity at 70.5 h turned out to be 3.41%.
As for `CCOCC1CN(C(=O)c2ccnnc2)Cc2cnn(CC)c21` (configuration not stated), the cytotoxicity at 70.5 h is -6.52%.
Regarding `CNC(=O)CN1CCC12CCN(C(=O)Cc1ccccc1)C2` (configuration not stated), the cytotoxicity at 70.5 h is -17.2%.
The value for `O=C(c1ccco1)N1CC[C@@H]2O[C@@H](COCCN3CCCC3)CC[C@@H]21` was -3.08%.
`Cc1nc(COC[C@H]2CCC[C@@]23CN(C(C)C)CCO3)cs1`: the cytotoxicity at 70.5 h is -6.88%.
On to `O=C(c1ccoc1)N1CC[C@@H]2O[C@@H](COCCN3CCCC3)CC[C@@H]21`, for which the cytotoxicity at 70.5 h is -12.6%.
For the molecule `O=C(c1ccco1)N1CC[C@@H]2O[C@H](COCCN3CCCC3)CC[C@@H]21`, the cytotoxicity at 70.5 h was determined as 10.5%.
`c1cnc(N2CCC3(CCCN(Cc4ccncc4)C3)CC2)nc1`: the cytotoxicity at 70.5 h stood at 18.3%.
With `c1cc(CN2C[C@@H]3OCCN(CC4CCCO4)[C@@H]3C2)cs1` (some centres not stated), the cytotoxicity at 70.5 h was -7.25%.
Turning to `COc1cccc(CN2C[C@@H]3COC[C@]3(COc3cccnc3)C2)c1`, the cytotoxicity at 70.5 h was found to be 3.66%.
In the case of `COc1cccc(CN2C[C@@H]3COC[C@]3(CN3CCOCC3)C2)c1`, the cytotoxicity at 70.5 h stood at 6.49%.
Consider `O=C1N(c2cncnc2)CCC12CCCN(Cc1cccnc1)C2` (configuration not stated), for which the cytotoxicity at 70.5 h was -3.72%.
In the case of `c1cc(COC[C@]23COC[C@H]2CN(CC2CCC2)C3)ccn1`, the cytotoxicity at 70.5 h was -11.8%.
`CNC(=O)CN1CCOCC12CCN(CCc1ccccc1)CC2`: the cytotoxicity at 70.5 h is -13.5%.
In the case of `COc1cc(N2C[C@@H]3COC[C@]3(COCc3ccccn3)C2)ncn1`, the cytotoxicity at 70.5 h is -4.79%.
As to `Fc1cnc(N2CCCC3(CCN(Cc4cccs4)C3)C2)nc1` (configuration not stated), the cytotoxicity at 70.5 h was -2.04%.
For the molecule `Fc1ccc(CN2CCC3(CC2)CCN(c2ncccn2)CC3)cc1`, the cytotoxicity at 70.5 h worked out at 10.9%.
Turning to `Cc1cccc(CN2Cc3nccn3CC(CN3CCOCC3)C2)c1` (configuration not stated), the cytotoxicity at 70.5 h is -9.03%.
As for `c1ccc(CN2C[C@@H]3COC[C@]3(COCc3ccncc3)C2)nc1`, the cytotoxicity at 70.5 h is -2.45%.
The figure for `COc1ccc(CN2C[C@@H]3OCCN(CCN(C)C)[C@@H]3C2)cc1` is -3.2%; for `CCc1ccc(CN2Cc3nccn3CC(CN3CCOCC3)C2)o1` (configuration not stated) it is -5.92%.
